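Five concentrations, 48 hours, 96-well plates. GI50 is the concentration that inhibits growth by half.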 Active and inactive are the calls of the source. Rule as the data show it: active = GI50 up to about 1.1 µM and inactive = higher.
How the values were obtained:
Assay in all cases: inhibition of tumour cell growth, NCI panel, 48 h
A549 = tested on: A549
COLO 205 = tested on: COLO 205
EKVX = tested on: EKVX
HCT-116 = tested on: HCT-116
HT-29 = tested on: HT-29
M14 = tested on: M14
M19-MEL = tested on: M19-MEL
NCI-H226 = tested on: NCI-H226
OVCAR-3 = tested on: OVCAR-3
SF-268 = tested on: SF-268
SF-295 = tested on: SF-295
SF-539 = tested on: SF-539
TK-10 = tested on: TK-10
U-251 = tested on: U-251
UACC-257 = tested on: UACC-257
UACC-62 = tested on: UACC-62
UO-31 = tested on: UO-31
XF498 = tested on: XF498

Measured: GI50

CCc1cccc(C(C)C)c1NC(=O)C(=O)C(CC(=O)Nc1ccc(Cl)c(Cl)c1)C(=O)OC (configuration not stated)
inactive: A549 > 100 µM | COLO 205 77.3 µM | EKVX > 100 µM | HCT-116 34.3 µM | HT-29 > 100 µM | M14 54.3 µM | M19-MEL 52.5 µM | NCI-H226 > 100 µM | OVCAR-3 > 100 µM | SF-268 > 100 µM | SF-295 > 100 µM | SF-539 > 100 µM | TK-10 > 100 µM | U-251 > 100 µM | UACC-257 > 100 µM | UACC-62 2.18 µM | UO-31 37.8 µM | XF498 > 100 µM

COc1ccc(/C=c2\sc3nnc(CCC(=O)Nc4cccc(C(F)(F)F)c4)n3c2=O)cc1
inactive: A549 > 100 µM | COLO 205 > 100 µM | EKVX > 100 µM | HCT-116 > 100 µM | HT-29 > 100 µM | M14 > 100 µM | M19-MEL > 84.1 µM | NCI-H226 > 100 µM | OVCAR-3 39.8 µM | SF-268 97.5 µM | SF-295 > 100 µM | SF-539 > 100 µM | TK-10 > 100 µM | U-251 > 94.2 µM | UACC-257 > 100 µM | UACC-62 > 62.8 µM | UO-31 > 100 µM | XF498 > 100 µM

CCOC(=O)/C(O)=C1\C(=O)N(C)C(=O)C1c1cccc(OC)c1 (configuration not stated)
inactive: A549 > 100 µM | COLO 205 > 100 µM | EKVX > 100 µM | HCT-116 > 100 µM | HT-29 > 100 µM | M19-MEL > 100 µM | NCI-H226 > 100 µM | OVCAR-3 > 53.3 µM | SF-268 > 100 µM | SF-295 > 100 µM | SF-539 > 100 µM | U-251 > 100 µM | UACC-257 > 100 µM | UACC-62 > 100 µM | UO-31 > 100 µM | XF498 > 100 µM

Cc1ccc([Se][Se]c2ccc(C)cc2)cc1
inactive: A549 33.3 µM | COLO 205 > 100 µM | HCT-116 14.4 µM | HT-29 20.5 µM | M14 > 10 µM | M19-MEL 13.7 µM | NCI-H226 24.5 µM | OVCAR-3 31.6 µM | SF-268 6.84 µM | SF-295 23.3 µM | SF-539 22.3 µM | TK-10 67.9 µM | U-251 3.18 µM | UACC-257 17 µM | UACC-62 9.4 µM | UO-31 14.1 µM | XF498 12.7 µM

CCOc1ccccc1NC(=O)/C=C1\NC(=O)CS1
inactive: A549 > 100 µM | COLO 205 > 100 µM | EKVX > 100 µM | HCT-116 > 100 µM | HT-29 > 100 µM | M14 > 100 µM | M19-MEL > 100 µM | NCI-H226 > 100 µM | OVCAR-3 > 100 µM | SF-268 > 100 µM | SF-295 > 100 µM | SF-539 > 100 µM | TK-10 > 100 µM | U-251 > 100 µM | UACC-62 > 100 µM | UO-31 > 100 µM | XF498 > 100 µM

O=c1[nH]c(Br)nc2c(N3CCCCC3)c[nH]c12
inactive: A549 > 100 µM | COLO 205 > 100 µM | EKVX > 100 µM | HCT-116 > 100 µM | HT-29 > 100 µM | M14 > 100 µM | M19-MEL > 100 µM | NCI-H226 > 100 µM | OVCAR-3 > 100 µM | SF-268 > 100 µM | SF-295 > 100 µM | SF-539 > 100 µM | TK-10 > 100 µM | U-251 > 100 µM | UACC-257 > 100 µM | UACC-62 > 100 µM | UO-31 > 100 µM | XF498 > 100 µM

O=S(=O)(O)c1cc(/N=[N+](\[O-])c2ccc(/N=N/c3ccccc3)cc2S(=O)(=O)O)ccc1/C=C/c1ccc(/N=[N+](\[O-])c2ccc(/N=N/c3ccccc3)cc2S(=O)(=O)O)cc1S(=O)(=O)O
inactive: A549 > 100 µM | COLO 205 > 100 µM | EKVX > 100 µM | HCT-116 > 100 µM | HT-29 > 100 µM | M19-MEL > 100 µM | NCI-H226 > 32.6 µM | OVCAR-3 > 100 µM | SF-268 > 100 µM | SF-295 > 58.3 µM | SF-539 > 31.6 µM | U-251 > 100 µM | UACC-257 > 100 µM | UACC-62 > 100 µM | UO-31 > 100 µM | XF498 > 100 µM

Cc1ccccc1N(CC(=O)O)S(=O)(=O)c1ccccc1
inactive: A549 > 100 µM | COLO 205 > 100 µM | EKVX > 100 µM | HT-29 > 100 µM | M14 > 100 µM | M19-MEL > 100 µM | NCI-H226 > 100 µM | OVCAR-3 > 100 µM | SF-268 > 100 µM | SF-295 > 100 µM | SF-539 > 100 µM | TK-10 > 100 µM | U-251 > 100 µM | UACC-257 > 100 µM | UACC-62 > 100 µM | UO-31 > 100 µM | XF498 > 100 µM

From ChEMBL document CHEMBL1201862, “PubChem BioAssay data set” (2004)
